Assay results reported in ChEMBL document CHEMBL1136352, “Synthesis of 2-fluoronoraristeromycin and its inhibitory activity against Plasmodium falciparum S-adenosyl-L-homocysteine hydrolase” (Bioorg Med Chem Lett, 2003).

Assays:
Plasmodium falciparum = test: Inhibitory activity against Plasmodium falciparum; assay type: functional, organism-based
Adenosylhomocysteinase [1] = target: Adenosylhomocysteinase (Homo sapiens, UniProt P23526); test: Inhibitory activity against human S-adenosyl-L-homocysteine hydrolase
Chain of Adenosylhomocysteinase (Homo sapiens, UniProt P23526) (P23526 whole entry): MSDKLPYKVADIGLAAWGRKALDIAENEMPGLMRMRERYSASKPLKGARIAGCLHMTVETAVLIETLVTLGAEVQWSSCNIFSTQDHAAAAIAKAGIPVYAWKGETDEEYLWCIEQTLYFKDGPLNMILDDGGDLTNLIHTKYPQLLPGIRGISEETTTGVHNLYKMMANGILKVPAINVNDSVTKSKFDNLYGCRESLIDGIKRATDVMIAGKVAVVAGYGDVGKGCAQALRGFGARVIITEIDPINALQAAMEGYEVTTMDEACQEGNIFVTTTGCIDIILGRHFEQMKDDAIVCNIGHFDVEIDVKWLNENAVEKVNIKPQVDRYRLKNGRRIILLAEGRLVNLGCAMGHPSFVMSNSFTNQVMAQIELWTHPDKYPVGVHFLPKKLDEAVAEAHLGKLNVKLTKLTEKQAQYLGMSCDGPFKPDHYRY

FM3A = test: Inhibitory activity against mammalian FM3A cell; assay type: functional, cell-based; conditions: Mus musculus
Adenosylhomocysteinase [2] = target: Adenosylhomocysteinase (Plasmodium falciparum 3D7, UniProt P50250); test: Inhibitory activity against Plasmodium falciparum S-adenosyl-L-homocysteine hydrolase
Chain of Adenosylhomocysteinase (Plasmodium falciparum 3D7, UniProt P50250) (P50250 whole entry): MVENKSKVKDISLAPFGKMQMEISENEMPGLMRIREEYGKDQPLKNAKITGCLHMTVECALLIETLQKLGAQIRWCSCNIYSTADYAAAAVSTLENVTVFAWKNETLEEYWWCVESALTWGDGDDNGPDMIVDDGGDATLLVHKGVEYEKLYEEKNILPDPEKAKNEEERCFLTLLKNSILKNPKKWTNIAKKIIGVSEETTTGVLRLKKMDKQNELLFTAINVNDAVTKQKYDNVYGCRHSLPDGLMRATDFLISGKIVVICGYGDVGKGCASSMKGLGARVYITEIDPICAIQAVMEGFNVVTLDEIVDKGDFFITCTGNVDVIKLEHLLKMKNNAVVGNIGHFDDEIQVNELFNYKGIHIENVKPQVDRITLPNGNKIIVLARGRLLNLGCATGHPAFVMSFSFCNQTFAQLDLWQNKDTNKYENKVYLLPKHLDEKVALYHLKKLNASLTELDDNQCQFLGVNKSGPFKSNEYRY

With Nc1nc(F)nc2c1ncn2[C@@H]1C[C@H](O)[C@@H](O)[C@H]1O the EC50 (Plasmodium falciparum) was 7.4 µM, the IC50 (Adenosylhomocysteinase [1]) was 63 µM and the Ki (Adenosylhomocysteinase [1]) was 7.9 µM. For the same compound, the EC50 (FM3A) was 7.2 µM, the IC50 (Adenosylhomocysteinase [2]) was 13 µM and the Ki (Adenosylhomocysteinase [2]) was 0.48 µM.
Work on Nc1ncnc2c1ncn2[C@@H]1C[C@H](O)[C@@H](O)[C@H]1O [NORARISTEROMYCIN] yielded an EC50 (Plasmodium falciparum) of 7.4 µM, an IC50 (Adenosylhomocysteinase [1]) of 1.1 µM and a Ki (Adenosylhomocysteinase [1]) of 0.16 µM. The EC50 (FM3A) was 0.072 µM, the IC50 (Adenosylhomocysteinase [2]) was 3.1 µM and the Ki (Adenosylhomocysteinase [2]) was 0.18 µM.
